Data: US7935670B2, “Hepatitis C virus inhibitors” (Bristol-Myers Squibb Company, priority 2006, dated 2011)

What was measured:
[1] = molecular target: T1, HCV NS3/4A protease complex, J4L6S strain (Hepatitis C virus genotype 1b, UniProt O92972, C1454S/C1711G); assay: FRET peptide assay to monitor HCV NS3/4A proteolytic activity (J4L6S strain); assay type: biochemical, HCV genotype 1b
T1 construct: DNA encoding the recombinant HCV NS3/4A protease complex (amino acids 1027 to 1711) for these strains; His tag (inferred from pET21b vector and Ni-NTA purification); made in house; host or cells: Escherichia coli BL21 (DE3), pET21b
From the text: HCV NS3 protease complexes, derived from the BMS strain, H77 strain or J4L6S strain, were generated, as described below. These purified recombinant proteins were generated for use in a homogeneous assay (see below) to provide an indication of how effective compounds of the present disclosure would be in inhibiting HCV NS3 proteolytic activity.
Serum from an HCV-infected patient was obtained from Dr. T. Wright, San Francisco Hospital. An engineered full-length cDNA (compliment deoxyribonucleic acid) template of the HCV genome (BMS strain) was constructed from DNA fragments obtained by reverse transcription-PCR(RT-PCR) of serum RNA (ribonucleic acid) and using primers selected on the basis of homology between other genotype 1a strains. From the determination of the entire genome sequence, a genotype 1a was assigned to the HCV isolate according to the classification of Simmonds et al. (See P Simmonds, K A Rose, S Graham, S W Chan, F McOmish, B C Dow, E A Follett, P L Yap and H Marsden, J. Clin. Microbiol., 31(6), 1493-1503 (1993)). […]

[2] = system: human pancreatic chymotrypsin; assay: Specificity assay, chymotrypsin; assay type: biochemical; conditions: 2 h enzyme-inhibitor pre-incubation
Description: (§1) The specificities of compounds of the present disclosure were determined against a variety of serine proteases: human neutrophil elastase (HNE), porcine pancreatic elastase (PPE) and human pancreatic chymotrypsin and one cysteine protease: human liver cathepsin B. In all cases a 96-well plate format protocol using colorimetric p-nitroaniline (pNA) substrate specific for each enzyme was used as described previously (PCT Patent Application No. WO 00/09543) with some modifications to the serine protease assays. All enzymes were purchased from Sigma while the substrates were from Bachem.
(§2) Each assay included a 2 h enzyme-inhibitor pre-incubation at room temperature followed by addition of substrate and hydrolysis to ˜30% conversion as measured on a Spectramax Pro microplate reader. Compound concentrations varied from 100 to 0.4 μM depending on their potency.
50 mM Tris(hydroxymethyl)aminomethane hydrochloride (Tris-HCl) pH 8, 0.5 M Sodium Sulfate (Na2SO4), 50 mM NaCl, 0.1 mM EDTA, 3% DMSO, 0.01% Tween-20 with:
133 μM succ-AAA-pNA and 20 nM HNE or 8 nM PPE; 100 μM succ-AAPF-pNA and […] Chymotrypsin.
(§3) The percentage of inhibition was calculated using the formula: [1−((UVinh−UVblank)/(UVctl−UVblank))]×100
(§4) A non-linear curve fit was applied to the inhibition-concentration data, and the 50% effective concentration (IC50) was calculated by the use of Excel Xl-fit software.

human liver cathepsin B = molecular target: T2, human liver cathepsin B (Homo sapiens, UniProt P07858); assay: Specificity assay, cathepsin B; assay type: biochemical; conditions: 2 h enzyme-inhibitor pre-incubation
T2 construct: purchased Sigma; host or cells: human liver (by name)
Description: as §1, §2
100 mM NaHPO4 (Sodium Hydrogen Phosphate) pH 6, 0.1 mM EDTA, 3% DMSO, 1 mM TCEP (Tris(2-carboxyethyl)phosphine hydrochloride), 0.01% Tween-20, 30 μM Z-FR-pNA and 5 nM Cathepsin B (enzyme stock activated in buffer containing 20 mM TCEP before use).
as §3, §4

T1 sequence (O92972 1027-1711 C1454S/C1711G, one chain of several): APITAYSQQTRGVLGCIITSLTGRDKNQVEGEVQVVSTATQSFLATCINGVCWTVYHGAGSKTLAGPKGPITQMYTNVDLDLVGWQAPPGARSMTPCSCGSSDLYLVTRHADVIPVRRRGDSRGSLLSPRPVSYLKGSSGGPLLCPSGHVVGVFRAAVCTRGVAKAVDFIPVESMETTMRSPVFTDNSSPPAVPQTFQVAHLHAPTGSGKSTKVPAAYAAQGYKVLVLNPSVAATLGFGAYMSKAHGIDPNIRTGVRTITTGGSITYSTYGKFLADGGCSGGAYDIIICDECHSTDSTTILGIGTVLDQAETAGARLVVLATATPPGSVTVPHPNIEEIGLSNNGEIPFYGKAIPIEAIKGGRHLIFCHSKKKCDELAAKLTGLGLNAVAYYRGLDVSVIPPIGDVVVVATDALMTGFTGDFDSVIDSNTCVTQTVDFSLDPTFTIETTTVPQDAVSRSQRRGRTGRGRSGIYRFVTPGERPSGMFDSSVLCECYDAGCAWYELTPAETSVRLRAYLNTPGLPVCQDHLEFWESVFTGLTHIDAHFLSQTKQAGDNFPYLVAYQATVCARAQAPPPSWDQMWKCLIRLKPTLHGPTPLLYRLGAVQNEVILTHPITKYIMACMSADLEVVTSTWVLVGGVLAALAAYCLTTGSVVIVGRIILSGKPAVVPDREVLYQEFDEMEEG

**Q.** What does the source list for `C=C[C@@H]1C[C@]1(NC(=O)[C@@H]1C[C@@H](OC(=O)c2ccccc2)CN1C(=O)[C@@H](NC(=O)OC(C)(C)C)C(C)(C)C)C(=O)NS(=O)(=O)C1CC1` [Compound 1]?
**A.** IC50 [1]: 0.0025 µM; IC50 [2]: > 200 µM; IC50 (human liver cathepsin B): > 50 µM
